According to patent US20250161266A1, “Antibacterial 4.5 Diaryl-Thiophen-2-YL Hexafluoropropan-2-OLS” (priority 2022, published 2025):
“And” between values parts separate entries of the source, which are not always exact repeats. Equal values may be shown once.

System: Bacillus anthracis
Assay type: cell-based

Compound | MIC | MIC50 | MIC90
Cc1cc(Cl)ccc1-c1cc(C(O)(C(F)(F)F)C(F)(F)F)sc1-c1ccc(Cl)cc1CO [DNM94A, 2-(5-(4-chloro-2-(hydroxymethyl)phenyl)-4-(4-chloro-2-methylphenyl)thiophen-2-yl)-1,1,1,3,3,3-hexafluoropropan-2-ol] | 1 µg·mL | 1 µg·mL | 1 µg·mL
Cc1cc(Cl)ccc1-c1sc(C(O)(C(F)(F)F)C(F)(F)F)cc1-c1ccc(Cl)cc1CO [DNM95A, 2-(4-(4-chloro-2-(hydroxymethyl)phenyl)-5-(4-chloro-2-methylphenyl)thiophen-2-yl)-1,1,1,3,3,3-hexafluoropropan-2-ol] | 1 µg·mL and 0.5 µg·mL | 1 µg·mL | 1 µg·mL
colistin [reference compound] |  | GT64 μg ml | GT64 μg ml
